Laboratory results as given in ChEMBL document CHEMBL1145260, “Design, synthesis and structure-activity relationships of 6-O-arylpropargyl diazalides with potent activity against multidrug-resistant Streptococcus pneumoniae” (2005).
≈ marks a conversion by molar mass, not a printed value.

Key:
Format in all cases: functional
[1] = test system: Streptococcus pyogenes; assay: Minimum inhibitory concentration against Streptococcus pyogenes 930 (erythromycin-resistant strain)
[2] = test system: Streptococcus pneumoniae; assay: Minimum inhibitory concentration against Streptococcus pneumoniae ATCC 6303 (erythromycin-susceptible strain)
[3] = test system: Streptococcus pneumoniae; assay: Minimum inhibitory concentration against Streptococcus pneumoniae 5649 strain
[4] = test system: Streptococcus pneumoniae; assay: Minimum inhibitory concentration against Streptococcus pneumoniae 5979 strain
[5] = test system: Streptococcus pyogenes; assay: Minimum inhibitory concentration against Streptococcus pyogenes EES61 (erythromycin-susceptible strain)
[6] = test system: Staphylococcus aureus; assay: Minimum inhibitory concentration against Staphylococcus aureus A5177 (erythromycin-resistant strain
[7] = test system: Staphylococcus aureus; assay: Minimum inhibitory concentration against Staphylococcus aureus 6538P (erythromycin-susceptible strain)
[8] = test system: Haemophilus influenzae; assay: Minimum inhibitory concentration against Haemophilus influenzae GYR1435 (erythromycin susceptible strain)

SMILES | MIC [1] [µg/mL] | MIC [2] [µg/mL] | MIC [3] [µg/mL] | MIC [4] [µg/mL] | MIC [5] [µg/mL] | MIC [6] [µg/mL] | MIC [7] [µg/mL] | MIC [8] [µg/mL]
CC[C@H]1OC(=O)[C@H](C)C(=O)[C@H](C)[C@@H](O[C@@H]2O[C@H](C)C[C@H](N(C)C)[C@H]2O)[C@@](C)(OCC#CCCc2ccc(-c3cccs3)cc2)C[C@@H](C)C2=NCCN3C(=O)O[C@@]1(C)[C@H]3[C@H]2C | 0.5 (≈ 0.59 µM) | 0.015 (≈ 0.0177 µM) | 0.25 (≈ 0.295 µM) | 0.125 (≈ 0.147 µM) | ≤ 0.008 | 0.5 (≈ 0.59 µM) | 1 (≈ 1.18 µM) | 8 (≈ 9.43 µM)
CC[C@H]1OC(=O)[C@H](C)C(=O)[C@H](C)[C@@H](O[C@@H]2O[C@H](C)C[C@H](N(C)C)[C@H]2O)[C@@](C)(OCC#Cc2cccnc2)C[C@@H](C)C2=NCCN3C(=O)O[C@@]1(C)[C@H]3[C@H]2C | 64 (≈ 86.6 µM) | 0.03 (≈ 0.0406 µM) | 1 (≈ 1.35 µM) | > 128 | 0.03 (≈ 0.0406 µM) | 0.2 (≈ 0.271 µM) | 0.2 (≈ 0.271 µM) | 2 (≈ 2.71 µM)
CC[C@H]1OC(=O)[C@H](C)C(=O)[C@H](C)[C@@H](O[C@@H]2O[C@H](C)C[C@H](N(C)C)[C@H]2O)[C@@](C)(OCC#Cc2cccs2)C[C@@H](C)C2=NCCN3C(=O)O[C@@]1(C)[C@H]3[C@H]2C | 64 (≈ 86 µM) | 0.03 (≈ 0.0403 µM) | 0.25 (≈ 0.336 µM) | > 128 | 0.03 (≈ 0.0403 µM) | 0.1 (≈ 0.134 µM) | 0.1 (≈ 0.134 µM) | 4 (≈ 5.38 µM)
CC[C@H]1OC(=O)[C@@](C)(F)C(=O)[C@H](C)[C@@H](O[C@@H]2O[C@H](C)C[C@H](N(C)C)[C@H]2O)[C@@](C)(OCC#Cc2ccc(-c3nnn(C)n3)s2)C[C@@H](C)C2=NCCN3C(=O)O[C@@]1(C)[C@H]3[C@H]2C | 2 (≈ 2.37 µM) | ≤ 0.008 | 0.25 (≈ 0.296 µM) | 0.125 (≈ 0.148 µM) | ≤ 0.008 | 0.125 (≈ 0.148 µM) | 0.5 (≈ 0.592 µM) | 4 (≈ 4.74 µM)
CC[C@H]1OC(=O)[C@H](C)C(=O)[C@H](C)[C@@H](O[C@@H]2O[C@H](C)C[C@H](N(C)C)[C@H]2O)[C@@](C)(OCC#Cc2ccc(-c3cccs3)cc2)C[C@@H](C)C2=NCCN3C(=O)O[C@@]1(C)[C@H]3[C@H]2C | 4 (≈ 4.88 µM) | ≤ 0.008 | ≤ 0.008 | ≤ 0.008 | ≤ 0.008 | 0.03 (≈ 0.0366 µM) | 0.5 (≈ 0.61 µM) | 2 (≈ 2.44 µM)
CC[C@H]1OC(=O)[C@H](C)C(=O)[C@H](C)[C@@H](O[C@@H]2O[C@H](C)C[C@H](N(C)C)[C@H]2O)[C@@](C)(OCC#Cc2cnc3c(F)cccc3c2)C[C@@H](C)C2=NCCN3C(=O)O[C@@]1(C)[C@H]3[C@H]2C | 0.5 (≈ 0.62 µM) | 0.004 (≈ 0.00496 µM) | 0.25 (≈ 0.31 µM) | 4 (≈ 4.96 µM) | ≤ 0.008 | 0.1 (≈ 0.124 µM) | 0.06 (≈ 0.0744 µM) | 2 (≈ 2.48 µM)
CC[C@H]1OC(=O)[C@@](C)(F)C(=O)[C@H](C)[C@@H](O[C@@H]2O[C@H](C)C[C@H](N(C)C)[C@H]2O)[C@@](C)(OCC#Cc2cnc3c(F)cccc3c2)C[C@@H](C)C2=NCCN3C(=O)O[C@@]1(C)[C@H]3[C@H]2C | 0.25 (≈ 0.303 µM) | ≤ 0.008 | 0.125 (≈ 0.152 µM) | 0.125 (≈ 0.152 µM) | ≤ 0.008 | 0.125 (≈ 0.152 µM) | 0.25 (≈ 0.303 µM) | 4 (≈ 4.85 µM)
CC[C@H]1OC(=O)[C@H](C)C(=O)[C@H](C)[C@@H](O[C@@H]2O[C@H](C)C[C@H](N(C)C)[C@H]2O)[C@@](C)(OCC#Cc2cnc3c(OC)cccc3c2)C[C@@H](C)C2=NCCN3C(=O)O[C@@]1(C)[C@H]3[C@H]2C | 4 (≈ 4.88 µM) | ≤ 0.008 | 0.06 (≈ 0.0733 µM) | 8 (≈ 9.77 µM) | ≤ 0.008 | 0.06 (≈ 0.0733 µM) | 0.25 (≈ 0.305 µM) | 2 (≈ 2.44 µM)
CC[C@H]1OC(=O)[C@H](C)C(=O)[C@H](C)[C@@H](O[C@@H]2O[C@H](C)C[C@H](N(C)C)[C@H]2O)[C@@](C)(OCC#Cc2ccccc2)C[C@@H](C)C2=NCCN3C(=O)O[C@@]1(C)[C@H]3[C@H]2C | 64 (≈ 86.7 µM) | 0.03 (≈ 0.0407 µM) | 0.5 (≈ 0.678 µM) | > 128 | 0.06 (≈ 0.0813 µM) | 0.2 (≈ 0.271 µM) | 0.2 (≈ 0.271 µM) | 8 (≈ 10.8 µM)
CC[C@H]1OC(=O)[C@H](C)C(=O)[C@H](C)[C@@H](O[C@@H]2O[C@H](C)C[C@H](N(C)C)[C@H]2O)[C@@](C)(OCC#Cc2ccc(-c3ccccn3)cc2)C[C@@H](C)C2=NCCN3C(=O)O[C@@]1(C)[C@H]3[C@H]2C | 8 (≈ 9.82 µM) | ≤ 0.008 | ≤ 0.008 | ≤ 0.008 | ≤ 0.008 | 0.03 (≈ 0.0368 µM) | 0.25 (≈ 0.307 µM) | 1 (≈ 1.23 µM)
CC[C@H]1OC(=O)[C@H](C)C(=O)[C@H](C)[C@@H](O[C@@H]2O[C@H](C)C[C@H](N(C)C)[C@H]2O)[C@@](C)(OC)C[C@@H](C)C2=NCCN3C(=O)O[C@@]1(C)[C@H]3[C@H]2C | > 128 | 0.06 (≈ 0.0941 µM) | 1 (≈ 1.57 µM) | > 128 | 0.06 (≈ 0.0941 µM) | 0.1 (≈ 0.157 µM) | 0.1 (≈ 0.157 µM) | 4 (≈ 6.27 µM)
CC[C@H]1OC(=O)[C@H](C)C(=O)[C@H](C)[C@@H](O[C@@H]2O[C@H](C)C[C@H](N(C)C)[C@H]2O)[C@@](C)(OCC#Cc2ccc(-c3nnn(C)n3)s2)C[C@@H](C)C2=NCCN3C(=O)O[C@@]1(C)[C@H]3[C@H]2C | 2 (≈ 2.42 µM) | ≤ 0.008 | 0.06 (≈ 0.0726 µM) | 0.003 (≈ 0.00363 µM) | ≤ 0.008 | 0.125 (≈ 0.151 µM) | 0.5 (≈ 0.605 µM) | 4 (≈ 4.84 µM)
CC[C@H]1OC(=O)[C@H](C)C(=O)[C@H](C)[C@@H](O[C@@H]2O[C@H](C)C[C@H](N(C)C)[C@H]2O)[C@@](C)(OCC#CCCc2ccc(-c3ccccn3)cc2)C[C@@H](C)C2=NCCN3C(=O)O[C@@]1(C)[C@H]3[C@H]2C | 0.5 (≈ 0.593 µM) | ≤ 0.008 | 0.06 (≈ 0.0712 µM) | 0.03 (≈ 0.0356 µM) | ≤ 0.008 | 0.25 (≈ 0.297 µM) | 0.25 (≈ 0.297 µM) | 2 (≈ 2.37 µM)
CC[C@H]1OC(=O)[C@H](C)C(=O)[C@H](C)[C@@H](O[C@@H]2O[C@H](C)C[C@H](N(C)C)[C@H]2O)[C@@](C)(OCC#Cc2cnc3ccccc3c2)C[C@@H](C)C2=NCCN3C(=O)O[C@@]1(C)[C@H]3[C@H]2C | 1 (≈ 1.27 µM) | ≤ 0.004 | 0.25 (≈ 0.317 µM) | 2 (≈ 2.53 µM) | 0.015 (≈ 0.019 µM) | 0.1 (≈ 0.127 µM) | 0.1 (≈ 0.127 µM) | 2 (≈ 2.53 µM)
CC[C@H]1OC(=O)[C@H](C)C(=O)[C@H](C)[C@@H](O[C@@H]2O[C@H](C)C[C@H](N(C)C)[C@H]2O)[C@](C)(OCC=Cc2cnc3ccccc3c2)C[C@@H](C)C(=O)[C@H](C)[C@H]2NC(=O)O[C@@]21C [CETHROMYCIN] | 1 (≈ 1.31 µM) | 0.03 (≈ 0.0392 µM) | 0.25 (≈ 0.326 µM) | 16 (≈ 20.9 µM) | < 0.005 | 0.05 (≈ 0.0653 µM) | 0.05 (≈ 0.0653 µM) | 2 (≈ 2.61 µM)
CC[C@H]1OC(=O)[C@H](C)[C@@H](O[C@H]2C[C@@](C)(OC)[C@@H](O)[C@H](C)O2)[C@H](C)[C@@H](O[C@@H]2O[C@H](C)C[C@H](N(C)C)[C@H]2O)[C@](C)(O)C[C@@H](C)C(=O)[C@H](C)[C@@H](O)[C@]1(C)O [ERYTHROMYCIN] | > 128 | 0.06 (≈ 0.0818 µM) | 16 (≈ 21.8 µM) | > 128 | 0.03 (≈ 0.0409 µM) | 6.2 (≈ 8.45 µM) | 0.39 (≈ 0.531 µM) | 8 (≈ 10.9 µM)
